Measurements taken from US20260083703A1, “INDOLINE DERIVATIVES AS SEROTONERGIC AGENTS USEFUL FOR THE TREATMENT OF DISORDERS RELATED THERETO” (MINDSET PHARMA INC., priority 2022, published 2026).
“And” between values parts separate entries of the source, which are not always exact repeats. Equal values may be shown once.

Experiments:
[1] = Liver microsomes stability, rat; details: for CLint scaled at 2 μM / half-life at 2 μM / microsomal CLint at 2 μM: rat liver microsomes
[2] = Liver microsomes stability, human; details: for Predicted hepatic CL / Remaining Percentage / CLint scaled at 2 μM / half-life at 2 μM / microsomal CLint at 2 μM: human; for CLint scaled at 2 μM / half-life at 2 μM / microsomal CLint at 2 μM: pooled human liver microsomes
[3] = target: T1, human 5-HT2A (h5-HT2A) receptor (Homo sapiens, UniProt P28223); assay: FLIPR assay, human 5-HT2A, agonist mode; format: cell-based
T1 construct: expressed in transfected cells; grown under G418 and hygromycin B selection
Method: I. Assessment of the Effect of Exemplary Compounds of Formula I Targeting on Human 5-HT2A (h5-HT2A) Receptor Under Agonist Mode:
I.c. Experimental Methods and Procedures: • 1. Cells were cultured in cell culture medium (DMEM containing 10% FBS, 1×penicillin-streptomycin 300 μg/ml G418 and 100 μg/ml hygromycin B) at 37° C., 5% (v/v) CO2. • 2. One day before the assays, the cells were detached using TrypLE™ Express and cells were counted using cell counter. Only cells with >85% viability were used for the assay. • 3. 20000 cells/well were seeded in 30 μl/well culture medium to a 384-well cell plate and cells were incubated overnight at 37° C., 5% (v/v) CO2. • 4. On the assay day, 2×dye solution was prepared following the manual of the FLIPR® Calcium 6 Assay Kit: i. The dye was diluted with assay buffer (20 mM HEPES in 1×HBSS, PH7.4); ii. Probenecid was added to the final concentration of 5 mM; iii. Vortex vigorously for 1-2 minutes. • 5. Medium was removed from cell plate by flicking the cell plate on towel papers. • 6. 10 μl of assay buffer and 10 μl of 2×dye solution was added to each well of the cell plate. • 7. The cell plate was placed on plate shaker, the plate was agitated at 600 rpm for 2 minutes. The plate was incubated at 37° C. for 2 hours followed by additional 15-minute incubation at 25° C. • 8. 3×compound in assay buffer was prepared: a. Reference compounds were diluted to required concentration with DMSO. The compounds were added to a 384-well compound plate; b. Serial dilutions were performed; c. 10 mM test compounds were added to the compound plate, and 3-fold serial dilutions were performed. d. Transfer 60 nl/well of compounds from source plate to a 384-well compound plate (Corning, 3657) by using an Echo; e. Add 20 μl/well assay buffer to the compound plate; f. Mix the plate on plate shaker for 2 mins; • 9. The cell plate, compound plate and tips were put into FLIPR, 10 μl of 3× compound was transferred to the cell plate per well with FLIPR.
• i. The normalized fluorescence reading (RFU) was calculated as shown below, where Fmax and Fmin stand for maximum and minimum of calcium signal during defined time window: RFU=Fmax−Fmin. • ii. Calculate the percentage activation using following equation:
[formula] • Iii. Calculate EC50 by fitting % activation against log of compound concentrations with Hill equation using XLfit.

[4] = Liver microsomes stability, mouse; details: for CLint scaled at 2 μM / half-life at 2 μM / microsomal CLint at 2 μM: male, microsomes
Male, C57BL/6J mice = assay: Mouse head twitch; format: in vivo
Method: The effect of different doses of representative compounds of Formula I are evaluated on head-twitch response (HTR) and other behavioural responses as behavior-based models of psychedelic activity.
Male, C57BL/6J mice (body weight range 20-30 g) were dosed with the appropriate dose of test article, and following a 1-minute pre-treatment time, placed in individual observation chambers. Animals were visually assessed for the incidence head twitches continuously over a 1 hr period. Head twitches were defined as a rapid jerk of the head which was not elicited by an external tactile stimulus (Come and Pickering, Psychopharmacologia, 1967, 11(1): 65-78). Each head twitch was individually counted by a trained observer, and the data expressed as the mean±SEM of 6-10 mice per group. Mice were used in a single experiment only.

T1 sequence (P28223 whole entry): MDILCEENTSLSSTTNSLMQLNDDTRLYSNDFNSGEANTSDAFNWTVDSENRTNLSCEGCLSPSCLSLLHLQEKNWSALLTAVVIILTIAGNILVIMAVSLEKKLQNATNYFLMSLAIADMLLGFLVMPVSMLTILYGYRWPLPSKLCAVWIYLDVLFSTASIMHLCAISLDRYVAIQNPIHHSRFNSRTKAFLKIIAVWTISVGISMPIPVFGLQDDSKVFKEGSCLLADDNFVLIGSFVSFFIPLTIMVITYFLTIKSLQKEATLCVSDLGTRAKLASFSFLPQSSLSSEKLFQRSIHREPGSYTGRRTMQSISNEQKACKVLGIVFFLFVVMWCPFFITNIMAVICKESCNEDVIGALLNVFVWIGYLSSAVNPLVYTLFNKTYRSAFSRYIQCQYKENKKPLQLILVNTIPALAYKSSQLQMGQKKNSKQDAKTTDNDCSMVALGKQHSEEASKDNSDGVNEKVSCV

SMILES | Predicted hepatic CL [1] [L/h/kg] | Remaining Percentage ([1]; With NADPH, 0 min) [%] | Remaining Percentage ([1]; With NADPH, 30 min) [%] | Remaining Percentage ([1]; With NADPH, 60 min) [%] | Remaining Percentage ([1]; Without NADPH, 0 min) [%] | Remaining Percentage ([1]; Without NADPH, 30 min) [%] | Remaining Percentage ([1]; Without NADPH, 60 min) [%] | CLint scaled at 2 μM [1] [L/h/kg] | half-life at 2 μM [1] [min] | microsomal CLint at 2 μM [1] [µL/min/mg] | Predicted hepatic CL [2] [L/h/kg] | Remaining Percentage ([2]; With NADPH, 0 min) [%] | Remaining Percentage ([2]; With NADPH, 30 min) [%] | Remaining Percentage ([2]; With NADPH, 60 min) [%] | Remaining Percentage ([2]; Without NADPH, 0 min) [%] | Remaining Percentage ([2]; Without NADPH, 30 min) [%] | Remaining Percentage ([2]; Without NADPH, 60 min) [%] | EC50 [3] | 5-HT2A (FLIPR) RFU@10 μM [3] | Predicted hepatic CL [4] [L/h/kg] | further results
CN1CCC[C@@H]1C[C@H]1CNc2ccc(F)cc21 [(R),(R)-I-47, (R)-5-fluoro-3-(((R)-I-methylpyrrolidin-2-yl)methyl)indoline] | 2.719 | 100.00 | 5.12 | 1.45 | 100.00 | 108.30 | 100.00 | 15.2 | 9.82 | 141 | 0.164 | 100.00 | 108.74 | 92.73 | 100.00 | 102.35 | 95.13 | 0.091 µM | 787 RFU | 0.7944 | CLint scaled at 2 μM [2]: 0.189 L/h/kg; half-life at 2 μM [2]: 551 min; microsomal CLint at 2 μM [2]: 2.51 µL/min/mg; Remaining Percentage ([4]; With NADPH, 0 min): 100.00%; Remaining Percentage ([4]; With NADPH, 30 min): 114.03%; Remaining Percentage ([4]; With NADPH, 60 min): 89.90%; Remaining Percentage ([4]; Without NADPH, 0 min): 100.00%; Remaining Percentage ([4]; Without NADPH, 30 min): 114.71%; Remaining Percentage ([4]; Without NADPH, 60 min): 87.16%; CLint scaled at 2 μM [4]: 0.931 L/h/kg; half-life at 2 μM [4]: 391 min; microsomal CLint at 2 μM [4]: 3.55 µL/min/mg
COc1ccc2c(c1)C(C[C@H]1CCCN1)CN2 (stereo partly drawn) [(R)-I-165, 5-Methoxy-3-(((R)-pyrrolidin-2-yl)methyl)indoline] | 1.909 | 100.00 | 53.50 | 28.43 | 100.00 | 106.00 | 119.73 | 4.51 | 33.1 | 41.9 | 0 | 100.00 | 111.72 | 114.92 | 100.00 | 99.07 | 85.51 | 0.057 µM | 1,318 RFU | 2.267 | T1/2 ([2]; human liver microsomes, 2 μM): ∞; Remaining Percentage ([4]; With NADPH, 0 min): 100.00%; Remaining Percentage ([4]; With NADPH, 30 min): 90.44%; Remaining Percentage ([4]; With NADPH, 60 min): 63.99%; Remaining Percentage ([4]; Without NADPH, 0 min): 100.00%; Remaining Percentage ([4]; Without NADPH, 30 min): 100.70%; Remaining Percentage ([4]; Without NADPH, 60 min): 117.77%; CLint scaled at 2 μM [4]: 3.91 L/h/kg; half-life at 2 μM [4]: 93.1 min; microsomal CLint at 2 μM [4]: 14.9 µL/min/mg
COc1ccc2c(c1)C(C[C@H]1CCCN1C)CN2 (stereo partly drawn) [(R)-I-54] | 2.951 | 100.00 | 2.28 | 0.48 | 100.00 | 103.93 | 97.75 | 27.1 | 5.5 | 252 | 0.8112 | 100.00 | 66.49 | 39.38 | 100.00 | 116.22 | 93.51 | 0.017 µM and 0.025 µM | 993 RFU and 990 RFU | 4.223 | CLint scaled at 2 μM [2]: 2.34 L/h/kg; half-life at 2 μM [2]: 44.6 min; microsomal CLint at 2 μM [2]: 31.1 µL/min/mg; Remaining Percentage ([4]; With NADPH, 0 min): 100.00%; Remaining Percentage ([4]; With NADPH, 30 min): 34.74%; Remaining Percentage ([4]; With NADPH, 60 min): 10.91%; Remaining Percentage ([4]; Without NADPH, 0 min): 100.00%; Remaining Percentage ([4]; Without NADPH, 30 min): 98.80%; Remaining Percentage ([4]; Without NADPH, 60 min): 91.62%; CLint scaled at 2 μM [4]: 19.4 L/h/kg; half-life at 2 μM [4]: 18.8 min; microsomal CLint at 2 μM [4]: 73.8 µL/min/mg; head twitch response (mean head twitches over 1 hr) (Male, C57BL/6J mice; 1 mg/kg SC): 0.7; head twitch response (mean head twitches over 1 hr) (Male, C57BL/6J mice; 3 mg/kg SC): 0.2; head twitch response (mean head twitches over 1 hr) (Male, C57BL/6J mice; 10 mg/kg SC): 1.2; head twitch response (mean head twitches over 1 hr) (Male, C57BL/6J mice; 30 mg/kg SC): 1.8; head twitch response (mean head twitches over 1 hr) (Male, C57BL/6J mice; 60 mg/kg SC): 0.8; dose of peak head twitch response (Male, C57BL/6J mice; SC): 30 mg/kg; head twitch response over the dose range tested (Male, C57BL/6J mice; SC, psilocybin 0.1-10, 5-MeO DMT 1-30, (R)-I-54 1-60 mg/kg): only a modest head twitch response
